Reference: patent US20230233425A1, “USE OF VOLATILE COMPOSITIONS TO LIMIT OR ELIMINATE THE PERCEPTION OF MALODOR” (Firmenich SA, priority 2017, published 2023)

Assays:
[1] = tested on: butyric acid malodor perception; experiment: Human sensory panel, perceived intensity of butyric acid; format: in vivo; conditions: Table 20
Procedure: The pleasantness of the compounds delivered alone (triangles, dashed-line) and in a mixture with butyric acid at isointense concentrations (squares, solid line). Many of these compounds are shown to inhibit the activity of a butyric acid olfactory receptor.
Malodor receptor antagonist systems and compositions were evaluated at a gas phase concentration of 3.4 microg/1 air. The sensory method to evaluate compositions required the use of specially designed air dilution olfactometers to achieve well controlled and stable gas phase concentrations of the compositions and of the malodor to the group of test subjects.
The 30 subjects first evaluated the malodor reconstitution alone and then rated the 3 attributes “Freshness”, “Pleasantness” and “malodor” (the malodor character) on a 0 to 10 scale. The next evaluation was performed 30 seconds later to avoid odor adaptation, the malodor reconstitution was injected together with the test composition in the olfactometer. Ratings for the same descriptors recorded.

[2] = biological target: T1, OR51E1 olfactory receptor (Homo sapiens, UniProt Q8TCB6); experiment: Butyric acid olfactory receptor antagonist cell-based dose-response vs butyric acid EC80; conditions: Table 20, spiro analogues; for Emax: read-out: Inhibition (%)
T1 construct: expressed in transfected cells
T1 sequence (Q8TCB6 1-318): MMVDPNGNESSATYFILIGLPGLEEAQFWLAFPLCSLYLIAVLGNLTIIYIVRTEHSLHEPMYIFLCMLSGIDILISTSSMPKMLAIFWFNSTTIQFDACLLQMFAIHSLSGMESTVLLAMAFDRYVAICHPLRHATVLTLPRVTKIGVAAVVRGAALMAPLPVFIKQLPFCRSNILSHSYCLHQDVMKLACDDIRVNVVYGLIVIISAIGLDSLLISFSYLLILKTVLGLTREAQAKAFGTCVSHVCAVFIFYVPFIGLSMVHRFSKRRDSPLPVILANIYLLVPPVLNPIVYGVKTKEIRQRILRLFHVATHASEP

Compound | Sensory Performance (%) [1] [%] | IC50 [2] [µM] | Emax [2] [%]
CC(=O)OC1C(C)(C)CCCC12CC(C)=C(C)C2 (stereo not shown) [(2,3,9,9-tetramethylspiro[4.5]dec-2-en-10-yl) acetate] | 40 | > 600 | 116
CC(=O)OC1C(C)(C)CCCC12CC(C)C(C)C2 (stereo not shown) | 50 | 51.4 | 62
C=C(C)CC1(CC(=C)C)CCCC(C)(C)C1=O [2,2-dimethyl-6,6-bis(2-methylprop-2-enyl)cyclohexan-1-one] | 50 | 46.6 | 103
CC1=C(C)CC2(CCCC(C)(C)C2=O)C1 [2,3,9,9-tetramethylspiro[4.5]dec-2-en-10-one] | 56 | – | –
CC(=O)OC1C(C)(C)CCCC12C(C)C=CCC2C (stereo not shown) | 43 | 72.3 | 72
CC1=C(C)CC2(CCCC(C)(C)C2O)C1 (stereo not shown) [2,3,9,9-tetramethylspiro[4.5]dec-2-en-10-ol] | 60 | 78.7 | 16
